One experiment addresses T1, Prostaglandin E synthase (Homo sapiens, UniProt O14684).
T1 sequence (O14684 whole entry): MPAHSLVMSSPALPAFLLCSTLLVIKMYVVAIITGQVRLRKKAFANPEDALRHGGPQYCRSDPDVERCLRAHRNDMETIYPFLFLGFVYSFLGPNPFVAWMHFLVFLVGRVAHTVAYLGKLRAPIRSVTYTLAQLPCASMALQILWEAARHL
In words: Inhibition of microsomal PGES-1 (unknown origin) assessed as PGH2 conversion to PGE2 after 1 min by enzyme immunoassay.

In experiment [1] the target is T2, Polyunsaturated fatty acid 5-lipoxygenase (Homo sapiens, UniProt P09917).
T2 sequence (P09917 whole entry): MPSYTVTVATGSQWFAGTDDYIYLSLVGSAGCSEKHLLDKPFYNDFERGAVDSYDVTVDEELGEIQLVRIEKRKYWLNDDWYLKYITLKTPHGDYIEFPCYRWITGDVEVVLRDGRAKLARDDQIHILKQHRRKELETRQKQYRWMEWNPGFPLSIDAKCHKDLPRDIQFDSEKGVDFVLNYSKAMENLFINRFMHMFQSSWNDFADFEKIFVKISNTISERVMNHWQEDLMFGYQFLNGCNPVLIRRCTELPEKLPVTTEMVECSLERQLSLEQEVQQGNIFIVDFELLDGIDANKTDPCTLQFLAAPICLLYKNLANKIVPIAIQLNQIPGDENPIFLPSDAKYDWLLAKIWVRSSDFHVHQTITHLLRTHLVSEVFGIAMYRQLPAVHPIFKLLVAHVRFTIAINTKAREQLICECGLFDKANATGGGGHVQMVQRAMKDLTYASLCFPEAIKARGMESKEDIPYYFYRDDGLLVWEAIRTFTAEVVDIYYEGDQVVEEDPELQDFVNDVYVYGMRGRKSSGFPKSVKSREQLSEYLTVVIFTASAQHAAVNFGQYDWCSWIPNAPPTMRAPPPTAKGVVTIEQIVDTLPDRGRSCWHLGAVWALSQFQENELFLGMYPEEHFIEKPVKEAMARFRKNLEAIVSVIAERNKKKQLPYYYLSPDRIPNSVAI
Put plainly: Inhibition of human 5-LOX using arachidonic acid as substrate measured as H2DCFDA conversion to 2',7'-dichlorofluorescein preincubated for 10 mins by fluorescence spectrophotometric analysis.

Experimental findings from ChEMBL document CHEMBL3286363, “Benzo[d]isothiazole 1,1-dioxide derivatives as dual functional inhibitors of 5-lipoxygenase and microsomal prostaglandin E(2) synthase-1” (Bioorg Med Chem Lett, 2014) are described below.

As usually defined, the IC50 is the concentration at which inhibition is half-maximal. In the case of `O=[N+]([O-])c1ccc2c(c1)S(=O)(=O)N=C2Nc1ccccc1`, the figures for the 50% inhibitory concentration (IC50) (on Prostaglandin E synthase; in experiment [1]) were 23.6 µM and 8.6 µM, respectively.

Take `O=[N+]([O-])c1ccc2c(c1)S(=O)(=O)N=C2Nc1cccc(Cl)c1`: the values for the IC50 (at Prostaglandin E synthase; in experiment [1]) were 5.7 µM and above 50 µM, respectively.

As for `O=[N+]([O-])c1ccc2c(c1)S(=O)(=O)N=C2Nc1cccc(Br)c1`, the concentration for half-maximal inhibition (IC50) was found to be 7.3 µM on Prostaglandin E synthase and 3.4 µM in experiment [1].

With `COc1ccc(NC2=NS(=O)(=O)c3cc([N+](=O)[O-])ccc32)cc1`, the IC50 at Prostaglandin E synthase came out at 16.9 µM; in experiment [1], 12.3 µM.

Regarding `COc1ccc(NC2=NS(=O)(=O)c3cc([N+](=O)[O-])ccc32)cc1OC`, the IC50 is above 50 µM on Prostaglandin E synthase and 23.5 µM in experiment [1].

For `O=[N+]([O-])c1ccc2c(c1)S(=O)(=O)N=C2NCc1cccc(Br)c1`, the IC50 (on Prostaglandin E synthase; in experiment [1]) was above 50 µM each time.

With `O=[N+]([O-])c1ccc2c(c1)S(=O)(=O)N=C2Nc1cccc2ccccc12`, the IC50 on Prostaglandin E synthase was determined as 2.1 µM; in experiment [1], 0.6 µM.

As for `Cc1ccccc1NC1=NS(=O)(=O)c2cc([N+](=O)[O-])ccc21`, the IC50 (at Prostaglandin E synthase; in experiment [1]) was above 50 µM throughout.

On to `CC(C)c1cccc(NC2=NS(=O)(=O)c3cc([N+](=O)[O-])ccc32)c1`, for which the figures for the IC50 (at Prostaglandin E synthase; in experiment [1]) were above 50 µM and 0.25 µM, respectively.

Take `CC(C)(C)c1cccc(NC2=NS(=O)(=O)c3cc([N+](=O)[O-])ccc32)c1`: the IC50 at Prostaglandin E synthase is above 50 µM; in experiment [1] it was 0.06 µM.

With `COc1cccc(NC2=NS(=O)(=O)c3cc([N+](=O)[O-])ccc32)c1`, the IC50 at Prostaglandin E synthase came out at 8.8 µM; in experiment [1], 0.24 µM.

With `O=[N+]([O-])c1ccc2c(c1)S(=O)(=O)N=C2Nc1cccc(-c2ccccc2)c1`, the IC50 at Prostaglandin E synthase is above 50 µM; in experiment [1], 0.7 µM.

`O=[N+]([O-])c1ccc2c(c1)S(=O)(=O)N=C2Nc1cccc2ncccc12`: the IC50 was 0.15 µM on Prostaglandin E synthase and above 50 µM in experiment [1].

Turning to `O=[N+]([O-])c1ccc2c(c1)S(=O)(=O)N=C2Nc1cccc2c(Br)cccc12`, the IC50 (at Prostaglandin E synthase; in experiment [1]) was above 50 µM in each case.

Take `O=[N+]([O-])c1ccc2c(c1)S(=O)(=O)N=C2Nc1cccc2c1OCO2`: the IC50 on Prostaglandin E synthase is above 50 µM; in experiment [1] it was 14.9 µM.
